Measured values from patent US7294491B2 (Ajinomoto Co., Inc., priority 2003, dated 2007).

Key:
[1] = precipitation concentration (super solubility) of L-glutamic acid in culture medium at pH 4.5 with added L-lysine; format: physicochemical, Pantoea ananatis AJ13601; conditions: pH 4.5 culture
Procedure: Cells of the Pantoea ananatis AJ13601 strain cultured at 30° C. for 14 hours in the LBG agar medium (10 g/L of trypton, 5 g/L of yeast extract, 10 g/L of NaCl, 15 g/L of agar) containing 25 mg/L of tetracycline hydrochloride and 25 mg/L of chloramphenicol were scraped from one plate and inoculated into 300 ml of seed culture medium having the following composition and contained in a 1 L-volume jar fermenter, and seed culture was performed at 34° C. and pH 6.0.
The pH was adjusted to 6.0 by adding ammonia gas during the culture. The seed culture was finished by observing depletion of the saccharide in the medium as an index, and the seed culture medium of 20% volume of the main culture medium was inoculated into 300 ml of the main culture medium contained in a 1 L-volume jar fermenter to perform the main culture under the conditions of 34° C. and pH 4.5. The composition of the main culture medium is shown below.
The pH was adjusted to 4.5 by adding ammonia gas during the culture. After the saccharide in the medium was consumed and depleted, 700 g/L of glucose aqueous solution was continuously added (6 ml/hr).
The liquid supernatant of the culture medium was obtained by centrifuging the culture medium at 10000×G for 1 minute. The polymorphism of crystals which precipitated in the culture medium was determined by microscopic observation.

[2] = crystal form of L-glutamic acid crystals precipitated in a cooling-crystallization system with added amino acid; format: physicochemical; conditions: FIG. 7

SMILES | concentration of added L-lysine above which α-form crystals form naturally without seed crystals [1] | control of precipitated L-glutamic acid crystal form by added amino acid ([2]; pH 4.5, super saturation 2, 34° C.) | control of precipitated L-glutamic acid crystal form by added amino acid ([2]; pH 3.2, super saturation 2, 34° C.) | control of precipitated L-glutamic acid crystal form by added amino acid ([2]; pH 4.5 or more, super saturation 2, 34° C.)
NCCCC[C@H](N)C(=O)O [L-lysine] | exceeds 900 mg/L | could be controlled to the α-form | – | –
N[C@@H](Cc1ccccc1)C(=O)O [L-phenylalanine] | – | – | showed the same effect | such an effect could not be observed
